Broadly, the IC50 is the concentration needed to halve the response being measured. A high value points to weaker potency in that assay.

The assay deals with Epidermal growth factor receptor (Homo sapiens, UniProt P00533). The experiment in a line: Displacement of [gamma-32P]-ATP from Epidermal growth factor receptor in A431 cell-free extracts. On the set-up: species or system A-431.
Sequence of Epidermal growth factor receptor (P00533 whole entry): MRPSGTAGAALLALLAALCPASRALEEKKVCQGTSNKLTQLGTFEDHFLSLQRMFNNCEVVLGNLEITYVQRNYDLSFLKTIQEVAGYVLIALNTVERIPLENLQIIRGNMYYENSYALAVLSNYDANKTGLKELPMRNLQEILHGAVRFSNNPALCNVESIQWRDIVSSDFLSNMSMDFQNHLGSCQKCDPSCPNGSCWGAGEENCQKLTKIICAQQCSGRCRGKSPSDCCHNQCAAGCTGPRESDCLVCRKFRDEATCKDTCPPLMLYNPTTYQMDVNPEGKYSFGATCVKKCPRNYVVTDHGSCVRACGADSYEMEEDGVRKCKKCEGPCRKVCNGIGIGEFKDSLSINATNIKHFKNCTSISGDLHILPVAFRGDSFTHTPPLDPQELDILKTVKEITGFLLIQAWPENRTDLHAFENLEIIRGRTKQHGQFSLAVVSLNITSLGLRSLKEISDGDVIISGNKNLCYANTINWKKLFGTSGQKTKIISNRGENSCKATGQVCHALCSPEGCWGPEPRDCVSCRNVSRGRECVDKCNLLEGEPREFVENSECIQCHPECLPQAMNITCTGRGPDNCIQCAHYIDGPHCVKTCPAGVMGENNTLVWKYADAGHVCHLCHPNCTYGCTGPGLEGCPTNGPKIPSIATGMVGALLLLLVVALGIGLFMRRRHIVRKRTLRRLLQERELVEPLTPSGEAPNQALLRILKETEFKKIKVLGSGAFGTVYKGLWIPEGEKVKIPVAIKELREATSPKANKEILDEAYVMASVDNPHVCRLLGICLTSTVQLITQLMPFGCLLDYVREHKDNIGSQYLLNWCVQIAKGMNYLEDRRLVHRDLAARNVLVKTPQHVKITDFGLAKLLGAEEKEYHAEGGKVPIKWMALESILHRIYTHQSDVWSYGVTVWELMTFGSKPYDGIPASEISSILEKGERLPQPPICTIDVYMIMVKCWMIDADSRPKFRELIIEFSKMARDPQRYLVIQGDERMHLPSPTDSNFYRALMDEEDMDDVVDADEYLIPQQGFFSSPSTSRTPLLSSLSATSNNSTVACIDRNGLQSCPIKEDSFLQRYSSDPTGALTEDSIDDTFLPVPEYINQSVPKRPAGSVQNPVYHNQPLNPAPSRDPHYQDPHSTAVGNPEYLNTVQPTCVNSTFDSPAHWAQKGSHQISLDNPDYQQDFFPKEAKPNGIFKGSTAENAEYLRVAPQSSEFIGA
Molecule `CNC(=O)c1cc(NCc2cc(O)ccc2O)ccc1O` returned an IC50 of 9.7 µM.

As to `CCCCCCNC(=O)c1cc(NCc2cc(O)ccc2O)ccc1O`, the IC50 came to 0.9 µM.

Consider `CCCCCCCCCCCCCCNC(=O)c1cc(NCc2cc(O)ccc2O)ccc1O`, for which the IC50 was 27.2 µM.

`O=S(=O)(O)c1cc(NCc2cc(O)ccc2O)ccc1O` yielded an IC50 of 10.3 µM.

`O=[N+]([O-])c1cc(NCc2cc(O)ccc2O)ccc1O` returned an IC50 of 5.4 µM.

As to `Oc1ccc(NCc2cc(O)ccc2O)cc1`, the IC50 was determined as 41.9 µM. Against the preceding molecule, the IC50 is about 7.8-fold higher.
